Assay [1] has as its target T1, SARS-CoV-2 PLpro (nsp3 1564–1878) (Severe acute respiratory syndrome coronavirus 2, UniProt P0DTD1). The assay is described as follows: biochemical. On the set-up: FRET-quenched peptide (Pro3) cleavage by PLpro, 10 min pre-incubation, slope over 20 min, normalised to no-compound control. The note with it: low concentration screen, read-out: % of control remaining.
The target of assay [2] is T1, SARS-CoV-2 PLpro (nsp3 1564–1878). The assay is described as follows: biochemical. On the set-up: FRET-quenched peptide (Pro3) cleavage by PLpro, 10 min pre-incubation, slope over 20 min, normalised to no-compound control. The note with it: high concentration screen, read-out: % of control remaining.

Structures can show the parent of a compound that is named as a salt. Where two headings read alike, the source gives them in different places.

We go through 26 compounds from article PMC8286840, “Identifying SARS-CoV-2 antiviral compounds by screening for small molecule inhibitors of Nsp3 papain-like protease” (Biochemical Journal, 2021).

In the case of `C[C@]12CC[C@@H](O)C[C@@H]1CC[C@@H]1[C@@H]2CC[C@]2(C)C(=O)CC[C@@H]12` [Androsterone], the remaining activity at 1.25 µM in assay [1] (Well no.=298) was determined as 98.5%; in assay [1] (Well no.=6435), 99.9%. Further, the remaining activity at 3.75 µM in assay [2] (Well no.=298) was determined as 99.3%; in assay [2] (Well no.=6435), 97.6%.

As to `COc1ccc(-c2cc(=S)ss2)cc1` [Anethole trithione], the remaining activity at 1.25 µM in assay [1] (Well no.=4132) was 93.9%. Moreover, the remaining activity at 3.75 µM in assay [2] (Well no.=4132) was 96.6%.

Regarding `C/C=C/c1ccc(OC)cc1` [Anethole, trans-], the remaining activity at 1.25 µM in assay [1] (Well no.=1916) was 97.9%. Further, in assay [2] (Well no.=1916), the remaining activity at 3.75 µM is 95.1%.

With `COc1ccc(-c2cc(=S)ss2)cc1` [Anethole-trithione], in assay [1] (Well no.=1856), the remaining activity at 1.25 µM is 91.9%. Also, the remaining activity at 3.75 µM in assay [2] (Well no.=1856) was found to be 92.4%.

With `CC[C@H](C)[C@H](NC(=O)[C@H](Cc1ccc(O)cc1)NC(=O)[C@@H](NC(=O)[C@H](CCCNC(=N)N)NC(=O)[C@@H](N)CC(=O)O)C(C)C)C(=O)N[C@@H](Cc1c[nH]cn1)C(=O)N1CCC[C@H]1C(=O)O` [Angiotensin (1-7)], the results for the remaining activity at 1.25 µM in assay [1] (Well no.=6176) and in assay [1] (Well no.=8368) were 96.1% and 99.7%, respectively. For the same compound, the remaining activity at 3.75 µM worked out at 96.5% in assay [2] (Well no.=6176) and 96.1% in assay [2] (Well no.=8368).

With `CC[C@H](C)[C@H](NC(=O)[C@H](Cc1ccc(O)cc1)NC(=O)[C@@H](NC(=O)[C@H](CCCNC(=N)N)NC(=O)[C@@H](N)CC(=O)O)C(C)C)C(=O)N[C@@H](Cc1cnc[nH]1)C(=O)N1CCC[C@H]1C(=O)N[C@@H](Cc1ccccc1)C(=O)O` [Angiotensin II human], in assay [1] (Well no.=8345), the remaining activity at 1.25 µM was determined as 93.9%. In addition, in assay [2] (Well no.=8345), the remaining activity at 3.75 µM is 97.1%.

As to `COc1ccc(C(=O)N2CCCC2=O)cc1` [Aniracetam], the results for the remaining activity at 1.25 µM in assay [1] (Well no.=156) and in assay [1] (Well no.=1889) were 102% and 95.1%, respectively. Further, the remaining activity at 3.75 µM was 108% in assay [2] (Well no.=156) and 95.2% in assay [2] (Well no.=1889).

`CN1[C@H]2C[C@H](OC(=O)[C@H](CO)c3ccccc3)C[C@@H]1[C@@H](O)C2` [Anisodamine]: the remaining activity at 1.25 µM in assay [1] (Well no.=3474) was determined as 96.3%. The remaining activity at 3.75 µM in assay [2] (Well no.=3474) is 92.3%.

Turning to `Cn1cncc1C[C@H](NC(=O)CCN)C(=O)O` [Anserine], the remaining activity at 1.25 µM in assay [1] (Well no.=6581) was 102%; in assay [1] (Well no.=7890), 91.9%. Further, the remaining activity at 3.75 µM in assay [2] (Well no.=6581) came to 103%; in assay [2] (Well no.=7890), 95.1%.

Regarding `c1ccc(CN(CC2=NCCN2)c2ccccc2)cc1` [Antazoline (hydrochloride)], the remaining activity at 1.25 µM in assay [1] (Well no.=7425) was found to be 112%. Besides, in assay [2] (Well no.=7425), the remaining activity at 3.75 µM came out at 102%.

With `CNc1ccc2oc(C[C@H]3O[C@@]4(CC[C@H]3C)O[C@H]([C@H](C)C(=O)c3ccc[nH]3)[C@H](C)C[C@H]4C)nc2c1C(=O)O` [Antibiotic A-23187], the remaining activity at 1.25 µM in assay [1] (Well no.=3079) amounted to 103%. Also, in assay [2] (Well no.=3079), the remaining activity at 3.75 µM amounted to 104%.

Regarding `CCCCCC[C@H]1C(=O)O[C@H](C)[C@H](NC(=O)c2cccc(NC=O)c2O)C(=O)O[C@@H](C)[C@@H]1OC(=O)CC(C)C` [Antimycin A1], in assay [1] (Well no.=3158), the remaining activity at 1.25 µM stood at 98.9%. For the same compound, the remaining activity at 3.75 µM in assay [2] (Well no.=3158) worked out at 98.6%.

As to `Cc1cc(=O)n(-c2ccccc2)n1C` [Antipyrine], in assay [1] (Well no.=5024), the remaining activity at 1.25 µM came out at 96.5%. In assay [2] (Well no.=5024), the remaining activity at 3.75 µM turned out to be 100%.

Turning to `c1ccc(CN(Cc2ncc[nH]2)c2ccccc2)cc1` [Antozoline hydrochloride], the remaining activity at 1.25 µM in assay [1] (Well no.=108) was found to be 101%. Further, the remaining activity at 3.75 µM in assay [2] (Well no.=108) was 103%.

For the compound `N#CC1(c2ccc(NC(=O)c3cccnc3NCc3ccncc3)cc2)CCCC1` [Apatinib (YN968D1)], in assay [1] (Well no.=5156), the remaining activity at 1.25 µM came to 101%. Further, the remaining activity at 3.75 µM in assay [2] (Well no.=5156) came out at 102%.

For `C[C@@]1(CO)[C@H](O)CC[C@@]2(C)[C@H]1CC[C@H]1C[C@@H]3C[C@@]12CC[C@]3(O)CO` [Aphidicolin], the remaining activity at 1.25 µM in assay [1] (Well no.=3476) is 104%. In addition, in assay [2] (Well no.=3476), the remaining activity at 3.75 µM was found to be 101%.

With `O=c1cc(-c2ccc(O)cc2)oc2cc(O[C@@H]3O[C@H](CO)[C@@H](O)[C@H](O)[C@H]3O)cc(O)c12` [Apigenin-7-glucoside], the remaining activity at 1.25 µM in assay [1] (Well no.=3635) was determined as 97.8%. Moreover, the remaining activity at 3.75 µM in assay [2] (Well no.=3635) is 93.3%.

In the case of `O=c1cc(-c2ccc(O)cc2)oc2cc(O)cc(O)c12` [Apigenin], the remaining activity at 1.25 µM was determined as 93.8% in assay [1] (Well no.=299), 99.1% in assay [1] (Well no.=3234) and 101% in assay [1] (Well no.=3909). In addition, the remaining activity at 3.75 µM in assay [2] (Well no.=299) was determined as 93.2%; in assay [2] (Well no.=3234), 94.9%; in assay [2] (Well no.=3909), 96.7%.

On to `COc1ccc(-n2nc(C(N)=O)c3c2C(=O)N(c2ccc(N4CCCCC4=O)cc2)CC3)cc1` [Apixaban], for which the remaining activity at 1.25 µM in assay [1] (Well no.=5331) was found to be 99.7%. Also, the remaining activity at 3.75 µM in assay [2] (Well no.=5331) came out at 100%.

For the compound `CN1CCc2cccc3c2[C@H]1Cc1ccc(O)c(O)c1-3` [Apomorphine hydrochloride hemihydrate], the remaining activity at 1.25 µM in assay [1] (Well no.=349) was found to be 99.6%. Further, the remaining activity at 3.75 µM in assay [2] (Well no.=349) was 103%.

In the case of `O=C1C(=O)N(Cc2ccc(Cl)c(Cl)c2)c2ccccc21` [Apoptosis Activator 2], the remaining activity at 1.25 µM in assay [1] (Well no.=5259) was 98.8%. Also, the remaining activity at 3.75 µM in assay [2] (Well no.=5259) was determined as 95.7%.

As for `COc1ccc(-c2nc(-c3cc(C(F)(F)F)cc(C(F)(F)F)c3)n(Cc3ccc(C(N)=O)cc3)c2-c2ccc(OC)cc2)cc1` [Apoptozole], the values for the remaining activity at 1.25 µM in assay [1] (Well no.=6596) and in assay [1] (Well no.=8536) were 102% and 98.3%, respectively. For the same compound, the remaining activity at 3.75 µM was 92.9% in assay [2] (Well no.=6596) and 90.1% in assay [2] (Well no.=8536).

Take `CN[C@@H]1[C@@H](O[C@H]2O[C@H](CO)[C@@H](N)[C@H](O)[C@H]2O)O[C@H]2C[C@@H](N)[C@@H](O[C@H]3[C@H](O)[C@@H](O)[C@H](N)C[C@@H]3N)O[C@@H]2[C@@H]1O` [Apramycin]: in assay [1] (Well no.=2127), the remaining activity at 1.25 µM came to 99.8%. Further, in assay [2] (Well no.=2127), the remaining activity at 3.75 µM turned out to be 102%.

As for `CCOc1cc([C@@H](CS(C)(=O)=O)N2C(=O)c3cccc(NC(C)=O)c3C2=O)ccc1OC` [Apremilast (CC-10004)], in assay [1] (Well no.=5218), the remaining activity at 1.25 µM stood at 97.8%. Further, the remaining activity at 3.75 µM in assay [2] (Well no.=5218) came out at 99.8%.

Regarding `C[C@@H](O[C@H]1OCCN(Cc2n[nH]c(=O)[nH]2)[C@H]1c1ccc(F)cc1)c1cc(C(F)(F)F)cc(C(F)(F)F)c1` [Aprepitant], the results for the remaining activity at 1.25 µM in assay [1] (Well no.=2244) and in assay [1] (Well no.=6703) were 98.3% and 102%, respectively. Also, the remaining activity at 3.75 µM in assay [2] (Well no.=2244) is 99.9%; in assay [2] (Well no.=6703), 97.7%.

As for `CCCCC/C=C\C/C=C\C/C=C\C/C=C\CCCC(N)=O` [Arachidonamide], the remaining activity at 1.25 µM in assay [1] (Well no.=4336) is 108%. Further, the remaining activity at 3.75 µM in assay [2] (Well no.=4336) came out at 104%.
